# According to PubChem BioAssay (NCI):
#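 96-well plates; 48 h exposure; 5 concentrations. Endpoints by linear interpolation between flanking doses. Not reached: highest tested concentration assigned. At the TGI there is no net growth.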
# What was measured:
# Assay in all cases: growth of human tumour cells (NCI), 48 h
# SK-MEL-28 melanoma = tested on: SK-MEL-28 melanoma
# RXF 393 renal = tested on: RXF 393 renal
# CAKI-1 renal = tested on: CAKI-1 renal
# OVCAR-5 ovarian = tested on: OVCAR-5 ovarian
# HOP-92 NSCLC = tested on: HOP-92 NSCLC
# UACC-62 melanoma = tested on: UACC-62 melanoma
# TK-10 renal = tested on: TK-10 renal
# UACC-257 melanoma = tested on: UACC-257 melanoma
# A549 NSCLC = tested on: A549 NSCLC
# OVCAR-3 ovarian = tested on: OVCAR-3 ovarian
# SK-MEL-2 melanoma = tested on: SK-MEL-2 melanoma
# NCI-H522 lung = tested on: NCI-H522 lung
# HCT-116 colon = tested on: HCT-116 colon
# OVCAR-4 ovarian = tested on: OVCAR-4 ovarian
# XF 498 CNS = tested on: XF 498 CNS
# MOLT-4 leukemia = tested on: MOLT-4 leukemia
# NCI-H23 lung = tested on: NCI-H23 lung
# HOP-62 NSCLC = tested on: HOP-62 NSCLC
# SK-OV-3 ovarian = tested on: SK-OV-3 ovarian
# COLO 205 colon = tested on: COLO 205 colon
# SNB-78 CNS = tested on: SNB-78 CNS
# SN12C renal = tested on: SN12C renal
# SNB-75 CNS = tested on: SNB-75 CNS
# EKVX NSCLC = tested on: EKVX NSCLC
# KM12 colon = tested on: KM12 colon
# HT29 colon = tested on: HT29 colon
# SNB-19 CNS = tested on: SNB-19 CNS
# M14 melanoma = tested on: M14 melanoma
# MALME-3M melanoma = tested on: MALME-3M melanoma
# OVCAR-8 ovarian = tested on: OVCAR-8 ovarian
# ACHN renal = tested on: ACHN renal
# M19-MEL melanoma = tested on: M19-MEL melanoma
# SF-295 CNS = tested on: SF-295 CNS
# SW-620 colon = tested on: SW-620 colon
# DMS 114 small cell lung = tested on: DMS 114 small cell lung
# SF-268 CNS = tested on: SF-268 CNS
# HCC-2998 colon = tested on: HCC-2998 colon
# UO-31 renal = tested on: UO-31 renal
# K-562 leukemia = tested on: K-562 leukemia
# SK-MEL-5 melanoma = tested on: SK-MEL-5 melanoma
# NCI-H460 lung = tested on: NCI-H460 lung
# SF-539 CNS = tested on: SF-539 CNS
# A498 renal = tested on: A498 renal
# RPMI-8226 leukemia = tested on: RPMI-8226 leukemia
# LOX IMVI melanoma = tested on: LOX IMVI melanoma
# CCRF-CEM leukemia = tested on: CCRF-CEM leukemia
# U251 CNS = tested on: U251 CNS
# 786-0 renal = tested on: 786-0 renal
# IGROV1 ovarian = tested on: IGROV1 ovarian
# LXFL 529 NSCLC = tested on: LXFL 529 NSCLC
# HCT-15 colon = tested on: HCT-15 colon
# KM20L2 colon = tested on: KM20L2 colon
# DMS 273 small cell lung = tested on: DMS 273 small cell lung
# HOP-18 NSCLC = tested on: HOP-18 NSCLC
# DLD-1 colon = tested on: DLD-1 colon
# HL-60(TB) leukemia = tested on: HL-60(TB) leukemia
smiles,measurement,setting,value
Cc1cc(C)nc(NS(=O)(=O)c2ccc(NC(=O)c3cccc4c(Nc5ccc(S(=O)(=O)Nc6nc(C)cc(C)n6)cc5)c5ccc(Cl)cc5nc34)cc2)n1,TGI,SK-MEL-28 melanoma,> 100 µM
same,TGI,RXF 393 renal,> 100 µM
same,TGI,CAKI-1 renal,77.1 µM
same,TGI,OVCAR-5 ovarian,> 100 µM
same,TGI,HOP-92 NSCLC,62.6 µM
same,TGI,UACC-62 melanoma,56.2 µM
same,TGI,TK-10 renal,> 100 µM
same,TGI,UACC-257 melanoma,62.9 µM
same,TGI,A549 NSCLC,> 100 µM
same,TGI,OVCAR-3 ovarian,58.3 µM
same,TGI,SK-MEL-2 melanoma,> 100 µM
same,TGI,NCI-H522 lung,54.7 µM
same,TGI,HCT-116 colon,> 100 µM
same,TGI,OVCAR-4 ovarian,> 100 µM
same,TGI,XF 498 CNS,59.8 µM
same,TGI,MOLT-4 leukemia,> 100 µM
same,TGI,NCI-H23 lung,> 100 µM
same,TGI,HOP-62 NSCLC,71.9 µM
same,TGI,SK-OV-3 ovarian,77.1 µM
same,TGI,COLO 205 colon,> 100 µM
same,TGI,SNB-78 CNS,> 100 µM
same,TGI,SN12C renal,> 100 µM
same,TGI,SNB-75 CNS,67.9 µM
same,TGI,EKVX NSCLC,> 100 µM
same,TGI,KM12 colon,> 100 µM
same,TGI,HT29 colon,> 100 µM
same,TGI,SNB-19 CNS,> 100 µM
same,TGI,M14 melanoma,> 100 µM
same,TGI,MALME-3M melanoma,50.3 µM
same,TGI,OVCAR-8 ovarian,> 100 µM
same,TGI,ACHN renal,> 100 µM
same,TGI,M19-MEL melanoma,> 100 µM
same,TGI,SF-295 CNS,> 100 µM
same,TGI,SW-620 colon,> 100 µM
same,TGI,DMS 114 small cell lung,79.8 µM
same,TGI,SF-268 CNS,> 100 µM
same,TGI,HCC-2998 colon,> 100 µM
same,TGI,UO-31 renal,82 µM
same,TGI,K-562 leukemia,88.6 µM
same,TGI,SK-MEL-5 melanoma,42.7 µM
same,TGI,NCI-H460 lung,> 100 µM
same,TGI,SF-539 CNS,> 100 µM
same,TGI,A498 renal,> 100 µM
same,TGI,RPMI-8226 leukemia,91.9 µM
same,TGI,LOX IMVI melanoma,> 100 µM
same,TGI,CCRF-CEM leukemia,79.8 µM
same,TGI,U251 CNS,> 100 µM
same,TGI,786-0 renal,> 100 µM
same,TGI,IGROV1 ovarian,> 100 µM
same,TGI,LXFL 529 NSCLC,> 100 µM
same,TGI,HCT-15 colon,> 100 µM
same,TGI,KM20L2 colon,> 100 µM
same,TGI,DMS 273 small cell lung,> 100 µM
same,TGI,HOP-18 NSCLC,> 100 µM
same,TGI,DLD-1 colon,> 100 µM
O=C1Nc2ccccc2C12CCCC2,TGI,SK-MEL-28 melanoma,> 100 µM
same,TGI,RXF 393 renal,> 100 µM
same,TGI,CAKI-1 renal,> 100 µM
same,TGI,UACC-62 melanoma,> 100 µM
same,TGI,TK-10 renal,> 100 µM
same,TGI,UACC-257 melanoma,> 100 µM
same,TGI,A549 NSCLC,> 100 µM
same,TGI,OVCAR-3 ovarian,> 100 µM
same,TGI,SK-MEL-2 melanoma,> 100 µM
same,TGI,NCI-H522 lung,> 100 µM
same,TGI,HCT-116 colon,> 100 µM
same,TGI,OVCAR-4 ovarian,> 100 µM
same,TGI,XF 498 CNS,> 100 µM
same,TGI,MOLT-4 leukemia,> 100 µM
same,TGI,NCI-H23 lung,> 100 µM
same,TGI,HL-60(TB) leukemia,> 100 µM
same,TGI,HOP-62 NSCLC,> 100 µM
same,TGI,SK-OV-3 ovarian,> 100 µM
same,TGI,COLO 205 colon,> 100 µM
same,TGI,SNB-78 CNS,> 100 µM
same,TGI,SN12C renal,> 100 µM
same,TGI,SNB-75 CNS,> 100 µM
same,TGI,EKVX NSCLC,> 100 µM
same,TGI,KM12 colon,> 100 µM
same,TGI,HT29 colon,> 100 µM
same,TGI,SNB-19 CNS,> 100 µM
same,TGI,M14 melanoma,> 100 µM
same,TGI,MALME-3M melanoma,> 100 µM
same,TGI,OVCAR-8 ovarian,> 100 µM
same,TGI,ACHN renal,> 100 µM
same,TGI,M19-MEL melanoma,> 100 µM
same,TGI,SF-295 CNS,> 100 µM
same,TGI,SW-620 colon,> 100 µM
same,TGI,DMS 114 small cell lung,> 100 µM
same,TGI,SF-268 CNS,> 100 µM
same,TGI,HCC-2998 colon,> 100 µM
same,TGI,UO-31 renal,> 100 µM
same,TGI,K-562 leukemia,> 100 µM
same,TGI,SK-MEL-5 melanoma,> 100 µM
same,TGI,NCI-H460 lung,> 100 µM
same,TGI,SF-539 CNS,> 100 µM
same,TGI,A498 renal,> 100 µM
same,TGI,RPMI-8226 leukemia,> 100 µM
same,TGI,CCRF-CEM leukemia,> 100 µM
same,TGI,U251 CNS,> 100 µM
same,TGI,786-0 renal,> 100 µM
same,TGI,IGROV1 ovarian,> 100 µM
same,TGI,LXFL 529 NSCLC,> 100 µM
same,TGI,HCT-15 colon,> 100 µM
same,TGI,KM20L2 colon,> 100 µM
same,TGI,DMS 273 small cell lung,> 100 µM
same,TGI,HOP-18 NSCLC,> 100 µM
same,TGI,DLD-1 colon,> 100 µM
